From patent US20090179638A1, “ASSAY FOR IDENTIFYING INHIBITORS OF NEURONAL APOPTOTIC PATHWAYS” (AEGERA THERAPEUTICS INC., priority 2006, published 2009)

How the values were obtained:
PC12 cells = test: PC12 cell death induced by chemotherapeutic drugs (LDH assay); format: cell-based
Description: FIG. 3 is a graph showing that compound 1 inhibits JNK-dependent cell death induced by chemotherapeutic drugs. Cells were infected with AdNRG at 5 MOI or treated with paclitaxel, cisplatin, or doxorubicin (Dox) at the indicated μM concentrations. At the time of treatment, compound 1 or vehicle was added to the cultures, as indicated. After 40 hours, cells were assayed for death using the LDH assay. Results are normalized relative to those obtained with 1% Triton (Tx), and represent the mean±standard deviation of a representative experiment performed in triplicate (*=P<0.01 relative to 0 μM compound 1 for each insult). Experiments were performed twice with identical results.
The ability of compound 1 to inhibit apoptosis in response to a variety of other insults, including the DNA damaging agent, cisplatin, the microtubule disruptor, paclitaxel, and doxorubicin, a topoisomerase inhibitor was investigated. […] Cisplatin-induced apoptosis has been reported to be JNK-dependent when used at low concentrations (10 μM), but JNK-independent at concentrations >25 μM (Sanchez-Perez and Perona, 1999) and consistent with this, compound 1 protected cells exposed to 10 μM, but not 50 μM, cisplatin (FIG. 3).
Cell culture, infection, transfection and immunoblotting. Sympathetic neurons were maintained and deprived of NGF as previously described (Bamji et al., 1998; Ma et al., 1992). PC12^rtTA cells were maintained and infected as previously described (Majdan et al., 1997; Salehi et al., 2002); for NRAGE, […] doxycycline was added to all plates at time of infection. Wildtype and HSF1 nullizygous immortalized mouse embryonic fibroblasts (MEFs) were maintained in DMEM containing 10% fetal calf serum, 1 μM β-mercaptoethanol, 1% non-essential amino acids, 1% L-glutamine, 1% antimycotic solution and 1% sodium pyruvate (all from GibcoBRL). Sympathetic neuron survival was assessed using the MTS assay according to the manufacturer's instructions (Promega). Analysis of PC12 cell death was determined using a lactate dehydrogenase (LDH) assay (Roche) as per the manufacturer's instructions. Transfections using plasmids or RNAi were performed using Lipofectamine 2000. Immunoblotting was performed as previously described (Majdan et al., 1997; Salehi et al., 2002).

HSP70 = HSP70 levels in SCG neurons (immunoblot); format: cell-based; settings: 18 hours
Description: To address this, SCG neurons were treated with compound 1 for 18 hours then lysed and assessed for HSP70 levels by immunoblot. Uninfected PC12rtTA cells were treated in a similar manner. […] To test if the accumulation of HSP70 induced by compound 1 reflected increased steady state levels of its mRNA, RNA was isolated from PC12 cells treated with increasing concentrations of compound 1 for 18 hours and the cell lysates subjected to semi-quantitative rtPCR. […] HSP protein levels were also assessed in PC12rtTA cells infected with AdLacZ, Adp75, or AdNRG, and at the same time, exposed to compound 1.

HSP70, HSP25, HSP90 mRNA = test: semi-quantitative rtPCR of HSP mRNA in PC12 cells; format: cell-based, rat; settings: 18 hours
Description: FIGS. 4A-4C are photographs of Western blots which illustrate that compound 1 treatment of PC12 cells induces expression of HSP70. A: PC12 cells were infected with 5 MOI of AdNRG (NRG) or AdLacZ (LacZ) as indicated. Cells were left untreated (0) or treated with 40 μM compound 1 at time of infection (30), one hour before lysis (1), or at both times (30+1). Cells were lysed thirty hours after infection, normalized for protein content, and analyzed for levels of phospho-Ser^63 c-Jun and total c-Jun, total JNK, IkBα, and NRAGE by immunoblotting. Lysates from untreated cells are indicated by ‘−’. B: PC12 cells were treated with the indicated concentrations of compound 1 for 18 hours and then lysed, normalized for protein content, and analyzed for levels of HSP70 by immunoblotting. Lysates from untreated cells are indicated by ‘−’. C: RNA isolated from PC12^rtTA cells treated with increasing concentrations of compound 1 for 18 hours was analyzed by rtPCR using primers specific to HSP70, HSP25, HSP90 or actin, as indicated. […] Thirty hours after infection, cells were lysed, normalized for protein content, and analyzed for levels of c-Jun phosphorylation, HSP70, HSP25, HSP40, NRAGE, p75NTR, JNK-1 and IkBα, as indicated.
To address this, SCG neurons were treated with compound 1 for 18 hours then lysed and assessed for HSP70 levels by immunoblot. […]

HSP70 promoter = test: HSP70 transcriptional reporter constructs in PC12 cells; format: cell-based; settings: transfected PC12 cells
Akt = Akt levels in PC12 cells (immunoblot); format: cell-based; settings: 16 hours

## NS(=O)(=O)c1nn2cc(-c3ccccc3)nc2s1 [Compound 1]
PC12 cells; cisplatin 10 μM
  protection against cisplatin-induced cell death: protected
PC12 cells; cisplatin 50 μM
  protection against cisplatin-induced cell death: not 50 μM
PC12 cells; doxorubicin
  protection against doxorubicin-induced cell death: did not offer any protection
PC12 cells; paclitaxel 10 μM and 50 μM
  apoptosis induced by paclitaxel: effectively reduced
HSP70
  cellular HSP70 levels: large increase
HSP70, HSP25, HSP90 mRNA
  HSP25 and HSP70 mRNA levels: increased levels
  HSP90 or actin mRNA levels: no effect
HSP70 promoter
  activity of HSP70 transcriptional reporter constructs: stimulated
Akt
  phosphorylated Akt (pAkt) levels: significantly enhanced
  total Akt levels: reduced total Akt only slightly
